Source: US5721219A, “N-alkyl-2-substituted ATP analogues and administration to inhibit platelet aggregation” (Astra Pharmaceuticals Ltd., priority 1993, dated 1998)
Structures can show the parent of a compound that is named as a salt.

Experiments:
guinea pig taenia coli = conditions: Maguire and Satchell 1979; cited from earlier work
P2T receptor = target: T1, P2T receptor (Homo sapiens, UniProt Q9H244); test: P2T receptor agonist/antagonist activity in washed human platelets (inhibition of ADP-induced aggregation); format: cell-based; conditions: submaximal ADP, 15 min incubation with test compound, 8-SPT present, % inhibition of control ADP response giving approximate IC50, read-out: pIC50 (negative logarithm of the antagonist potency) (converted)
T1 construct: activity in washed human platelets; endogenous in cells; host or cells: washed human platelets from venous blood of donors
T1 sequence (Q9H244 whole entry): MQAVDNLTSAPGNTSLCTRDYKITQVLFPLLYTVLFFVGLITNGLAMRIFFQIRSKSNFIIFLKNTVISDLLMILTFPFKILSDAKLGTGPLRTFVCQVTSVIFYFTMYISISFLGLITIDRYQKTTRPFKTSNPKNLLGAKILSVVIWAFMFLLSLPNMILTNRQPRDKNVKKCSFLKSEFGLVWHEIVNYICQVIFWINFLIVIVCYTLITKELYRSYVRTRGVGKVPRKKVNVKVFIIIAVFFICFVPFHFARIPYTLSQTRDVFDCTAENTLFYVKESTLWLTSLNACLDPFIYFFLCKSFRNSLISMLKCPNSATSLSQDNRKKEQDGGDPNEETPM
Protocol: Quantification of P2T receptor aganoist/antagonist activity in washed human platelets Human venous blood (100 ml) was divided equally between 3 tubes, each containing 3.2% trisodium citrate (4 ml) as anti-coagulant. The tubes were centrifuged for 15 min at 240G to obtain a platelet-rich plasma (PRP) to which 300 ng.ml^-1 prostacyclin (PGI2, 3 μl.ml^-1 PRP of 1/10 diln. in saline from stock 1 mg/ml^-1 in ethanol) was added to stabilize the platelets during the washing procedure. Red cell free PRP was obtained by centrifugation for 10 min at 125G followed by further centrifugation for 15 min at 640G. The supernatant was discarded and the platelet pellet resuspended in modified, calcium free, Tyrode solution [(10 ml) CFT, composition: NaCl 137 mM (8 g.l^-1), NaHCO3 11.9 mM (1 g.l^-1), NaH2 PO, 0.38 mM (0.06 g.l^-1), KCl 2.86 mM (1 ml of 20% soln.l^-1), MgCl2 1.05 mM (1 ml of 10% soln.l^-1), dextrose 5.55 mM (1 g.l^-1)], gassed with 95% O2 /5% CO2 and maintained at 37°. Following addition of a further 300 ng.ml^-1PGI2, the pooled suspension was centrifuged once more for 15 min at 640G. The supernatant was discarded and the platelets resuspended initially in 10 ml CFT with further CFT added to adjust the final platelet count to 2×10^5.μl^-1. This final suspension was stored in a 60 ml syringe at 3° with air excluded.
To allow recovery from PGI2 -inhibition of normal function, platelets were used in aggregation studies no sooner than 2 hours after final resuspension. […]
A concentration of ADP producing a just submaximal response was selected by constructing a concentration/response curve over the range 10-300 μM. the appropriate solution of ADP was added to the aggregation cuvette in a volume of 10 μl, 20 min after starting the aggregation trace. Aggregation responses were measured using the maximum rate of change in light transmission, an index given by the PAP4 slope-reader. […]

platelet aggregation = conditions: Cusack and Hourani, Nucleosides & Nucleotides 1991; cited from earlier work

Row | IC50 (P2T receptor) [nM] | Structure (SMILES) | further results
1 | 2.09 | CCNc1nc(SCCC(F)(F)F)nc2c1ncn2[C@@H]1O[C@H](COP(=O)(O)OP(=O)(O)C(Cl)(Cl)P(=O)(O)O)[C@@H](O)[C@H]1O [Example 5, N-Ethyl-2-[(3,3,3-trifluoropropyl)thio]-5'-adenylic acid, monoanhydride with dichloromethylenebisphosphonic acid, trisodium salt] | –
2 | 0.724 | O=P(O)(OC[C@H]1O[C@@H](n2cnc3c(NCC(F)(F)F)nc(SCCC(F)(F)F)nc32)[C@H](O)[C@@H]1O)OP(=O)(O)C(Cl)(Cl)P(=O)(O)O [Example 6a, N-(2,2,2-Trifluoroethyl)-2-[(3,3,3-trifluoropropyl)thio]-5'-adenylic acid, monoanhydride with dichloromethylenebisphosphonic acid, triammonium salt] | –

Continued, compound first:

Row | Structure (SMILES) | IC50 (P2T receptor) [nM] | further results
3 | Nc1nc(Cl)nc2c1ncn2[C@@H]1O[C@H](COP(=O)(O)OP(=O)(O)CP(=O)(O)O)[C@@H](O)[C@H]1O [2-chloro-5'-adenylic acid, monoanhydride with methylenebisphosphonic acid] | – | inhibition of guinea pig taenia coli (guinea pig taenia coli): inhibition
4 | CCCSc1nc(NCC)c2ncn([C@@H]3O[C@H](COP(=O)(O)OP(=O)(O)C(Cl)(Cl)P(=O)(O)O)[C@@H](O)[C@H]3O)c2n1 [Example 1, N-Ethyl-2-(propylthio)-5'-adenylic acid, monoanhydride with dichloromethylenebisphosphonic acid, tetrasodium salt] | 0.912 | –
5 | CSc1nc(N)c2ncn([C@@H]3O[C@H](COP(=O)(O)OP(=O)(O)CP(=O)(O)O)[C@@H](O)[C@H]3O)c2n1 [2-methylthio-5'-adenylic acid, monoanhydride with methylenebisphosphonic acid] | – | inhibition of ADP-α-S induced platelet aggregation (platelet aggregation): inhibits
